# Assay results published in article PMC10364317, “Regulation of indole‐3‐acetic acid biosynthesis and consequences of auxin production deficiency in Serratia plymuthica” (Microbial Biotechnology, 2023).
# Entries after “also recorded” stand apart in the source; their conditions may differ. Where two headings read alike, the source gives them in different places.
# T1: TyrR (TyrRA153) (Serratia plymuthica A153, UniProt A0A318P557 1-523)
# T1 sequence: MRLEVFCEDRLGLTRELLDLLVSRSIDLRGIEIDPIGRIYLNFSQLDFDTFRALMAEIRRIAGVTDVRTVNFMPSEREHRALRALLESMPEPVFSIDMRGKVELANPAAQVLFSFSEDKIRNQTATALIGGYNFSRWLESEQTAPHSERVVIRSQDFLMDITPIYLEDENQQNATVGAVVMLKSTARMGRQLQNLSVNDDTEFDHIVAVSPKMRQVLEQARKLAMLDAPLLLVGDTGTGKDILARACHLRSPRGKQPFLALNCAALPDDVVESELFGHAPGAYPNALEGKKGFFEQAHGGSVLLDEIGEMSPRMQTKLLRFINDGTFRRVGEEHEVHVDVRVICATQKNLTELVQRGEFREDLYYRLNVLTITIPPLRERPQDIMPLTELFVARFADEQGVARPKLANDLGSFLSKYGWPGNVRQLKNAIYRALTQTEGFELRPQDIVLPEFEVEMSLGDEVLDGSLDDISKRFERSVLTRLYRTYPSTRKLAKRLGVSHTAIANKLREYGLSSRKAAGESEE
# Key:
# [1] = tested on: ipdc promoter; test: β-Galactosidase assay of the ipdc promoter fusion (P ipdc::lacZ; pMAMV302); type: cell-based, Serratia plymuthica A153; conditions: for induction of ipdc gene expression compared to the same medium lacking the ligand: minimal medium with 15 mM glucose, 1 mM ligand, 24 h
# Experimental: Expression of the lacZ reporter gene was monitored during growth using 2‐nitrophenyl β‐D‐galactopyranoside (ONPG; Merck) as a substrate, as described previously (Miller, [1972]). The transcriptional fusion assays were carried out using S. plymuthica A153 LacZ (control) or derived mutants.
# [2] = target: T2, TyrRA153 (Serratia plymuthica, UniProt A0A318P557); test: Microcalorimetric titrations of TyrRA153 with 26-bp DNA oligomers of the ipdc promoter (TyrR box); type: binding, Serratia plymuthica A153; conditions: wild-type ipdc promoter oligomer; for increase of TyrRA153 DNA binding affinity: saturating ligand concentration
# Experimental: (§1) Measurements were made using a VP‐ITC microcalorimeter (MicroCal, Inc., Northampton, MA) at 10–25°C. HpaAA153 and HpaRA153 were dialyzed into 50 mM Tris, 300 mM NaCl, 10% (v/v) glycerol, 2 mM β‐mercaptoethanol, pH 8.0. Alternatively, TyrRA153 was dialyzed into 5 mM Tris, 5 mM PIPES, 5 mM MES, 150 mM NaCl, 10 mM MgCl2, 10 mM β‐mercaptoethanol, 10% (v/v) glycerol, pH 7.5. Proteins at 5–50 μM were placed into the sample cell and titrated with 3.2–12.8 μL aliquots of 0.5–10 mM ligand solutions made up in the corresponding dialysis buffers. For DNA binding studies, wild‐type and mutant oligonucleotides corresponding to the TyrR box were synthesized and annealed. Briefly, an equimolar mixture of 200 μM of each complementary oligonucleotide was prepared in 10 mM Tris, 50 mM NaCl, 1 mM EDTA, pH 7.5. This mixture was subsequently incubated at 95°C for 5 min, chilled on ice and dialyzed in the same buffer used for TyrRA153 ITC studies. A typical experiment consisted in an injection of 3.2–12.8 μL aliquots of 100 μM DNA into a 5–20 μM protein solution in the absence and presence of TyrR ligands (e.g. 1 mM L‐Trp; 1 mM L‐Phe; 0.1 mM L‐Tyr; 0.5 mM ATP). Protein‐DNA interaction studies were done at 10°C. In all cases, the mean enthalpies measured from the injection of the ligand in the buffer were subtracted from raw titration data before data analysis with the ORIGIN software (MicroCal).
# [3] = target: T2, TyrRA153; test: Isothermal titration calorimetry of TyrRA153 with ligands; type: binding, Serratia plymuthica A153; conditions: for competition with L-Tyr for binding at the ATP-dependent site of TyrRA153: 10 mM competitor, 1 mM ATP, titration with 1 mM L-Tyr
# Experimental: as §1
# [4] = tested on: HpaRA153; test: Isothermal titration calorimetry of HpaRA153 with ligands; type: binding, Serratia plymuthica A153
# Experimental: as §1
# [5] = target: HpaAA153 (Serratia plymuthica, UniProt A0A7T2WCJ6); test: Isothermal titration calorimetry of HpaAA153 with ligands; type: binding, Serratia plymuthica A153
# HpaAA153, sequence (A0A7T2WCJ6 entry or part of it): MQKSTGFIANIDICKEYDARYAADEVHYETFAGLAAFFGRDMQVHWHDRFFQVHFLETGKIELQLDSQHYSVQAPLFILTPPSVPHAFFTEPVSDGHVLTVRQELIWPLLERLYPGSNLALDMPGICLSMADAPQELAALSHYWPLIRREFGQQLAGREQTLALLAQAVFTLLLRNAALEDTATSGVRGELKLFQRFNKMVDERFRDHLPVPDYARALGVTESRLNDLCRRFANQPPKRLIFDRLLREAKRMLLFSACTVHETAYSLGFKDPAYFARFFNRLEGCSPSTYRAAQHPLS
# Experimental: as §1
# [6] = design: method as in Patten et al., [2013]; conditions: ref Patten et al., [2013]; cited from earlier work
# [7] = target: T1, TyrR (TyrRA153); test: ITC; L-Tyr + ATP (saturating; e.g. 0.1 mM L-Tyr, 0.5 mM ATP); 10 mM MgCl2; ITC: 5 mM Tris, 5 mM PIPES, 5 mM MES, 150 mM NaCl, 10 mM MgCl2, 10 mM beta-mercaptoethanol, 10% glycerol, pH 7.5, 10 C; 100 uM DNA injected into 5-20 uM TyrR; conditions: protein: recombinant; tags: N-terminal His6; chain copies: 2; blunt
# [8] = target: T1, TyrR (TyrRA153); test: ITC; no amino acid or ATP; 10 mM MgCl2; ITC: 5 mM Tris, 5 mM PIPES, 5 mM MES, 150 mM NaCl, 10 mM MgCl2, 10 mM beta-mercaptoethanol, 10% glycerol, pH 7.5, 10 C; 100 uM DNA injected into 5-20 uM TyrR; conditions: protein: recombinant; tags: N-terminal His6; chain copies: 2; blunt
# [9] = target: T1, TyrR (TyrRA153); test: ITC; L-Phe (saturating; e.g. 1 mM); 10 mM MgCl2; ITC: 5 mM Tris, 5 mM PIPES, 5 mM MES, 150 mM NaCl, 10 mM MgCl2, 10 mM beta-mercaptoethanol, 10% glycerol, pH 7.5, 10 C; 100 uM DNA injected into 5-20 uM TyrR; conditions: protein: recombinant; tags: N-terminal His6; chain copies: 2; blunt
# [10] = ITC, in the presence of ATP, read-out: K D
# [11] = ITC, ligand alone (absence of ATP for amino acids)
# [12] = ITC, ligand alone (absence of ATP for amino acids), read-out: K D
molecule,measurement,setting,value
"N[C@@H](Cc1ccc(O)cc1)C(=O)O [L‐Tyr, L‐Tyrosine]",induction of ipdc gene expression compared to the same medium lacking the ligand,[1]; 30°C,11.0 fold
same,increase of TyrRA153 DNA binding affinity,[2],2.4 fold
same,ΔH,"[3]; ITC, in the presence of ATP",-28.5 ± 0.42 kJ/mol
same,Kd,[3]; [10],6 ± 0.2 µM
same,K D,[3]; [11],No binding
same,ΔH,[3]; [11],No binding
O=C(O)c1ccccc1O [Salicylic acid],binding to HpaRA153 as determined by isothermal titration calorimetry,[4],did not bind
same,binding to HpaAA153 as determined by isothermal titration calorimetry,[5],did not bind
"O=C(O)Cc1ccc(O)cc1 [4HPA, 4‐hydroxyphenylacetic acid]",binding to HpaRA153 as determined by isothermal titration calorimetry,[4],unable to observe the binding
same,Kd,[5],28.5 µM
O=C(O)c1ccc(O)cc1 [4‐hydroxybenzoic acid],binding to HpaRA153 as determined by isothermal titration calorimetry,[4],did not bind
same,Kd,[5],28.5 ± 2 µM
same,ΔH,"[5]; ITC, One binding site model",-1.7 ± 0.13 kJ/mol
Cc1cccc(C(=O)O)c1 [3-methylbenzoic acid],binding to HpaRA153 as determined by isothermal titration calorimetry,[4],did not bind
same,binding to HpaAA153 as determined by isothermal titration calorimetry,[5],did not bind
O=C(O)C(=O)Cc1c[nH]c2ccccc12 [Indole-3-pyruvic acid],binding to HpaRA153 as determined by isothermal titration calorimetry,[4],did not bind
same,binding to HpaAA153 as determined by isothermal titration calorimetry,[5],did not bind
"O=C(O)Cc1ccc(O)c(O)c1 [3,4HPA, 3,4‐dihydroxyphenylacetic acid]",binding to HpaRA153 as determined by isothermal titration calorimetry,[4],unable to observe the binding
same,binding to HpaRA153 as determined by isothermal titration calorimetry,"[4]; listed as 3,4-dihydroxyphenylacetic acid",did not bind
same,binding to HpaAA153 as determined by isothermal titration calorimetry,[5],did not bind
O=C(O)c1ccccc1 [Benzoic acid],binding to HpaRA153 as determined by isothermal titration calorimetry,[4],did not bind
same,binding to HpaAA153 as determined by isothermal titration calorimetry,[5],did not bind
Nc1ncnc2c1ncn2[C@@H]1O[C@H](COP(=O)(O)OP(=O)(O)OP(=O)(O)O)[C@@H](O)[C@H]1O [ATP],ΔH,[3]; [11],-95.8 ± 6.28 kJ/mol
same,Kd,[3]; [12],16 ± 0.7 µM
"N[C@@H](Cc1ccccc1)C(=O)O [L‐Phe, L‐Phenylalanine]",induction of ipdc gene expression compared to the same medium lacking the ligand,[1]; 30°C,5.1 fold
same,increase of TyrRA153 DNA binding affinity,[2],2.6 fold
same,competition with L-Tyr for binding at the ATP-dependent site of TyrRA153,[3]; ITC,compete with L‐Tyr for binding
same,ΔH,"[3]; ITC, in the presence of ATP",-0.84 ± 0.042 kJ/mol
same,Kd,[3]; [10],193 ± 24 µM
same,K D,[3]; [11],bound; also recorded: Binding ^a
same,ΔH,[3]; [11],Binding ^a
"N[C@@H](Cc1c[nH]c2ccccc12)C(=O)O [L‐Trp, L‐Tryptophan]",effect of supplementation on ipdc transcription,"[1]; LB medium, different concentrations, 30°C",did not result in increased ipdc transcription
same,induction of ipdc gene expression compared to the same medium lacking the ligand,[1]; 30°C,no changes in ipdc expression
same,reduction of TyrRA153 DNA affinity,[2]; presence of ligand,2.3 fold
same,competition with L-Tyr for binding at the ATP-dependent site of TyrRA153,[3]; ITC,compete with L‐Tyr for binding
same,ΔH 1,"[3]; ITC, in the presence of ATP",-7.53 ± 1.3 kJ/mol
same,ΔH 2,"[3]; ITC, in the presence of ATP",-33.1 ± 7.11 kJ/mol
same,Kd,"[3]; ITC, in the presence of ATP, read-out: K D1",1640 µM
same,Kd,"[3]; ITC, in the presence of ATP, read-out: K D2",2060 µM
same,K D,[3]; [11],bound
same,ΔH,[3]; [11],-6.69 ± 2.1 kJ/mol
same,Kd,[3]; [12],2680 ± 670 µM
"O=C(O)Cc1ccccc1 [PAA, phenylacetic acid]",binding to HpaRA153 as determined by isothermal titration calorimetry,[4],did not recognize
same,binding to HpaRA153 as determined by isothermal titration calorimetry,[4]; listed as Phenylacetic acid,did not bind
same,binding to HpaAA153 as determined by isothermal titration calorimetry,[5],did not recognize
same,binding to HpaAA153 as determined by isothermal titration calorimetry,[5]; listed as Phenylacetic acid,did not bind
"O=C(O)Cc1c[nH]c2ccccc12 [IAA, Indole‐3‐acetic acid]",effect of supplementation on ipdc expression,"[1]; 0.25 mM and 1 mM, wild-type A153 and ipdc mutant",did not result in altered ipdc expression
same,induction of ipdc gene expression compared to the same medium lacking the ligand,[1]; 30°C,No changes in ipdc expression
same,pKa,[6],4.8
same,binding to TyrRA153 as determined by isothermal titration calorimetry,[3],did not bind
same,binding to HpaRA153 as determined by isothermal titration calorimetry,[4],unable to observe IAA binding
same,binding to HpaRA153 as determined by isothermal titration calorimetry,[4]; listed as Indole-3-acetic acid,did not bind
same,binding to HpaAA153 as determined by isothermal titration calorimetry,[5],unable to observe IAA binding
same,binding to HpaAA153 as determined by isothermal titration calorimetry,[5]; listed as Indole-3-acetic acid,did not bind
O=C(O)Cc1cccc(O)c1 [3-hydroxyphenylacetic acid],binding to HpaRA153 as determined by isothermal titration calorimetry,[4],did not bind
Pipdc-wt-ITC (wild-type TyrR box) (dsDNA) DNA 1: CCCCTGTAAAGGAGCCATTACATCAA DNA 2: TTGATGTAATGGCTCCTTTACAGGGG,Kd,[7],0.081 ± 0.01 µM
same,Kd,[8],0.193 ± 0.02 µM
same,Kd,[9],0.074 ± 0.01 µM
Pipdc-mut-ITC (mutant TyrR box) (dsDNA) DNA 1: CCCCGACGTGGGAGCCGCCGTGTCAA DNA 2: TTGACACGGCGGCTCCCACGTCGGGG,binding result,[8],no binding
